Test results reported in patent publication US20050060772A1, “Regulation of ethylene sensitivity during leaf and flower abscission” (priority 2001, published 2005).
“Also recorded” adds a separate entry of the source.

Key:
wild-type tomato flowers = conditions: wild-type flowers treated with ethylene (FIG. 1: 10 ppm, 16 hrs)
Experimental: (§1) Flower clusters were cut from the plant, placed in a vial of water, and treated with 10 ppm ethylene for 16 hrs.
(§2) Preliminary work was conducted in tomato to test the efficacy of these approaches.

[1] = tested on: transgenic tomato flowers (EIN2 over-expression / co-suppression); conditions: transgenic flowers treated with ethylene (FIG. 1: 10 ppm, 16 hrs)
Experimental: as §1, §2

TCTR1 antisense plants = assay: Inducible leaf abscission in TCTR1 antisense tomato plants; conditions: for rate of leaf abscission compared with EIN3 over-expressing plants: CTR1/TCTR1 antisense plants; for induction of leaf abscission: TCTR1 antisense under the three inducible promoters

| SMILES | time to flower abscission after treatment (wild-type tomato flowers) | time flowers remained attached to the pedicel after treatment [1] | rate of leaf abscission compared with EIN3 over-expressing plants (TCTR1 antisense plants) | induction of leaf abscission (TCTR1 antisense plants) |
| --- | --- | --- | --- | --- |
| C=C [ethylene] | 24 h | at least 5 days |  |  |
| CC(C)CC[C@@H](O)[C@](C)(O)[C@H]1CC[C@@]2(O)C3=CC(=O)[C@]4(O)C[C@@H](O)[C@@H](O)C[C@]4(C)[C@H]3[C@H](O)C[C@]12C [muristeroneA] |  |  | less rapid; also recorded: not as rapid | induced leaf abscission |
| CCO [ethanol] |  |  | less rapid; also recorded: not as rapid | induced leaf abscission |
